Source: patent US11541067B2, “HMO compositions and methods for reducing detrimental proteolytic metabolites” (Glycom A/S, priority 2017, dated 2023)

Test system: microbial metabolites
Test: M-SHIME (M-TripleSHIME) in vitro gastrointestinal model: bacterial metabolite analysis
Assay type: cell-based, human
Details: proximal (PC) and distal (DC) colon reactor; FIG. 1 in mg/l, means of three weekly samples
From the text: The impact of the HMOs on microbiota and bacterial metabolites was investigated in the M-SHIME® (M-TripleSHlME®) in vitro gastrointestinal model (Prodigest). The typical reactor setup of the M-TripleSHIME® consisted of a succession of four reactors simulating the different parts of the human gastrointestinal tract. The first two reactors were of the fill-and-draw principle to simulate different steps in food uptake and digestion, with peristaltic pumps adding a defined amount of SHIME feed (140 mL 3×/day) and pancreatic and bile liquid (60 ml 3×/day), respectively, to the stomach and small intestine compartment and emptying the respective reactors after specified intervals. The last two compartments were continuously stirred reactors with constant volume and pH control. […]
The M-TripleSHIME® was run in four stages: • 1. […] The baseline microbial community composition and activity in the different reactors was determined by analysis of samples and was used as a reference. • 3. […]
Sample of the liquids in each reactor were collected regularly (three times in a week, on day 1, day 3 and day 5) and were analysed for microbial metabolites and the composition of the resident microbial community. In particular, the bifidobacteria composition was analysed using ITS profiling.

CC(=O)N[C@H]1[C@H](O[C@H]2[C@@H](O)[C@@H](CO)O[C@@H](O[C@H]3[C@H](O)[C@@H](O)C(O)O[C@@H]3CO)[C@@H]2O)O[C@H](CO)[C@@H](O[C@@H]2O[C@H](CO)[C@H](O)[C@H](O)[C@H]2O)[C@@H]1O (mixture of isomers) [LNnT, lacto-N-neotetraose]
ammonia production compared with the effect of 2′-FL (FIG. 1): similar
branched SOFA production compared with the effect of 2′-FL (FIG. 1): similar
